Design in all cases: purchased Milipore (Millipore)
The target of assay [1] is T1, Human adrenergic α2B receptor (Homo sapiens, UniProt P18089).
T1 sequence (P18089 1-450): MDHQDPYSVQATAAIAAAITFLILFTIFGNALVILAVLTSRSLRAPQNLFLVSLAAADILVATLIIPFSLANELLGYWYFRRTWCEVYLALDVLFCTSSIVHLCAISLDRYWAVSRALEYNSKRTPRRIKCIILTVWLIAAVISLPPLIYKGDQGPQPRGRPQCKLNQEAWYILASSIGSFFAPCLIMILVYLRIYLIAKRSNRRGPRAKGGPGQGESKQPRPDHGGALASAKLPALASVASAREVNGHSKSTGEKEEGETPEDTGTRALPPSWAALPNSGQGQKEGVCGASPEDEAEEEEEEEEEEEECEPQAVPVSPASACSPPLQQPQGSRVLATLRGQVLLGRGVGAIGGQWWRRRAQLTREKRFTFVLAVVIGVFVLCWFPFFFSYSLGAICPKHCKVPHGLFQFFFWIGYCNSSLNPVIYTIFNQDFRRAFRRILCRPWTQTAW
Put plainly: Radioligand binding, adrenergic α2B (Protocol Group B). The note with it: Protocol Group B; for Percentage inhibition of ligand binding, Adrenergic α2B (10 nM) / inhibition at 0.01 µM: 10 nM compound; for Percentage inhibition of ligand binding, Adrenergic α2B (10 nM): 0.01 µM; for Percentage inhibition of ligand binding, Adrenergic α2B (30 nM) / inhibition at 0.03 µM: 30 nM compound; for Percentage inhibition of ligand binding, Adrenergic α2B (30 nM): 0.03 µM; for Percentage inhibition of ligand binding, Adrenergic α2B (0.1 μM) / inhibition at 0.1 µM: 0.1 μM compound; for inhibition at 0.01 µM: read-out: Percentage inhibition of ligand binding, Adrenergic α2B (10 nM); for inhibition at 0.03 µM: read-out: Percentage inhibition of ligand binding, Adrenergic α2B (30 nM); for inhibition at 0.1 µM: read-out: Percentage inhibition of ligand binding, Adrenergic α2B (0.1 μM). The procedure, abridged: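 Compounds at various concentrations in 1% DMSO were tested on recombinant membranes in Tris-HCl pH 7.4 buffer containing MgCl2, CaCl2 and 0.2% BSA.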

The target in assay [2] is T2, Human adrenergic α2A receptor (Homo sapiens, UniProt P08913).
T2 sequence (P08913 1-465): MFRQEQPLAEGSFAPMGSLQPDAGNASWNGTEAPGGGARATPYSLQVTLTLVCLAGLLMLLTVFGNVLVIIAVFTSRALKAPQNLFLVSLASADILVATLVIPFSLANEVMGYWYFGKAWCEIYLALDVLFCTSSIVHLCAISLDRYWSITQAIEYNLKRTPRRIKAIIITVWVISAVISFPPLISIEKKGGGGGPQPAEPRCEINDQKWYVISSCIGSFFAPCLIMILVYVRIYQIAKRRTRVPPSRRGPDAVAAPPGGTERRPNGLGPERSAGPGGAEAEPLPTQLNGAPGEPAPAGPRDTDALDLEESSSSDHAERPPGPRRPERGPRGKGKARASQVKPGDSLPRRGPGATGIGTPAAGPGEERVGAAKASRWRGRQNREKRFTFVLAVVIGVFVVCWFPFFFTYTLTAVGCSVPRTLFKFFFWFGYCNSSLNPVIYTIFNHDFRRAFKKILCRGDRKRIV
In words: Radioligand binding, adrenergic α2A (Protocol Group B). As to conditions: Protocol Group B; for Percentage inhibition of ligand binding, Adrenergic α2A (0.1 μM) / inhibition at 0.1 µM: 0.1 μM compound; for Percentage inhibition of ligand binding, Adrenergic α2A (0.3 μM) / inhibition at 0.3 µM: 0.3 μM compound; for inhibition at 0.1 µM: read-out: Percentage inhibition of ligand binding, Adrenergic α2A (0.1 μM); for inhibition at 0.3 µM: read-out: Percentage inhibition of ligand binding, Adrenergic α2A (0.3 μM). The procedure, abridged: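 Compounds (1% DMSO vehicle, various concentrations) competed against 2 nM [^3H]MK-912 on recombinant receptor membranes for 60 min at 25° C, Tris-HCl pH 7.4 buffer with Mg2+, Ca2+, BSA. Bound radioligand filtered and counted; 10 μM rauwolscine set nonspecific binding. Values: percent inhibition of specific binding or estimated Ki.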

Assay [3] has as its target T3, Human adrenergic α1B receptor (Homo sapiens, UniProt P35368).
T3 sequence (P35368 1-520): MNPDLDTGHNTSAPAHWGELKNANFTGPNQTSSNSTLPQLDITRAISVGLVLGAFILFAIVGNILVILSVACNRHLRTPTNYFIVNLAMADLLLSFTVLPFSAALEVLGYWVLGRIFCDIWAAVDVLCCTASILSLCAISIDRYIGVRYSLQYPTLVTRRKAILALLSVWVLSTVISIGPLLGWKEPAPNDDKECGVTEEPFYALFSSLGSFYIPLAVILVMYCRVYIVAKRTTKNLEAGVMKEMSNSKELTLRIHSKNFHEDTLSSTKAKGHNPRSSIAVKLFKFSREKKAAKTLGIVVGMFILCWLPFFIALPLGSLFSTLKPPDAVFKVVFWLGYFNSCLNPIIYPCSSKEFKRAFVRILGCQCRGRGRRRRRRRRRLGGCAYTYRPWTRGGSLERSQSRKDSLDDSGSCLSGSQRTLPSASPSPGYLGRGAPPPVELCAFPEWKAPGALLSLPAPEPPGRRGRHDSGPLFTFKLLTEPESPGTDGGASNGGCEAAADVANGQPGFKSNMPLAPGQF
In words: Radioligand binding, adrenergic α1B (Protocol Group B). As to conditions: Protocol Group B; for Percentage inhibition of ligand binding, Adrenergic α1B (0.1 μM) / inhibition at 0.1 µM: 0.1 μM compound; for Percentage inhibition of ligand binding, Adrenergic α1B (0.3 μM) / inhibition at 0.3 µM: 0.3 μM compound; for inhibition at 0.1 µM: read-out: Percentage inhibition of ligand binding, Adrenergic α1B (0.1 μM); for inhibition at 0.3 µM: read-out: Percentage inhibition of ligand binding, Adrenergic α1B (0.3 μM). The procedure, abridged:
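Values are percent inhibition of specific [3H]prazosin (0.3 nM) binding or estimated Ki, from filtration counting. Human α1B recombinant membranes, Tris-HCl pH 7.4 buffer with MgCl2 and EDTA, 60 min at 25 °C, 1% DMSO vehicle; 10 μM prazosin defined nonspecific binding.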

The structures appear in SMILES notation.

11 molecules from patent US20150315188A1, “COMPOUNDS AND METHODS FOR TREATMENT OF HYPERTENSION” (MEDIVATION TECHNOLOGIES, INC., priority 2012, published 2015) can be followed below.

By inhibition is commonly meant the relative decrease from the control value, in per cent.

Consider `OC(Cn1c2c(c3cc(F)ccc31)C1CCCN1CC2)c1ccncc1` (centres unmarked) [compound 18, 2-(10-fluoro-2,3,5,6-tetrahydro-1H-indolizino[7,8-b]indol-7 (11cH)-yl)-1-(pyridin-4-yl)ethanol], for which, in assay [1], the “Percentage inhibition of ligand binding, Adrenergic α2B (10 nM)” value (shortened to “Percentage inhibition … (10 nM)”) amounted to 54%; the “Percentage inhibition of ligand binding, Adrenergic α2B (30 nM)” value (“Percentage inhibition … (30 nM)” below) stood at 81%; the “Percentage inhibition of ligand binding, Adrenergic α2B (0.1 μM)” value came out at 95%. Besides, in assay [2], the “Percentage inhibition of ligand binding, Adrenergic α2A (0.1 μM)” value is listed as 12% and the “Percentage inhibition of ligand binding, Adrenergic α2A (0.3 μM)” value is on record as 38%. Also, in assay [3], the “Percentage inhibition of ligand binding, Adrenergic α1B (0.1 μM)” value is reported as 20% and the “Percentage inhibition of ligand binding, Adrenergic α1B (0.3 μM)” value worked out at 51%.

On to `Cc1cc(C)c2c(c1)c1c(n2CC(C)(O)c2ccncc2)CCN2CCCC12` (centres unmarked) [compound 19, 1-(8,10-dimethyl-2,3,5,6-tetrahydro-1H-indolizino[7,8-b]indol-7(11cH)-yl)-2-(pyridin-4-yl)propan-2-ol], for which, in assay [1], the “Percentage inhibition … (10 nM)” value was found to be 81%; the “Percentage inhibition … (30 nM)” value is 95%; the “Percentage inhibition of ligand binding, Adrenergic α2B (0.1 μM)” value worked out at 100%. Further, in assay [2], the “Percentage inhibition of ligand binding, Adrenergic α2A (0.1 μM)” value turned out to be 59% and the “Percentage inhibition of ligand binding, Adrenergic α2A (0.3 μM)” value came to 79%. For the same molecule, in assay [3], the “Percentage inhibition of ligand binding, Adrenergic α1B (0.1 μM)” value is on record as 77% and the “Percentage inhibition of ligand binding, Adrenergic α1B (0.3 μM)” value turned out to be 91%.

In the case of `CN1CCc2c(c3cccc(Cl)c3n2CC(O)c2cccnc2)C1` (centres unmarked) [compound 20, 2-(6-chloro-2-methyl-3,4-dihydro-1H-pyrido[4,3-b]indol-5-(2H)-yl)-1-(pyridin-3-yl)ethanol], in assay [1], the inhibition at 0.01 µM came out at 6%, the inhibition at 0.03 µM came to 35% and the inhibition at 0.1 µM was determined as 54%. Also, in assay [2], the inhibition at 0.1 µM was determined as 12% and the inhibition at 0.3 µM turned out to be 23%. Besides, in assay [3], the inhibition at 0.1 µM stood at 10% and the inhibition at 0.3 µM came out at 15%.

On to `Cc1cc2c3c(n(CC(O)c4ccncc4)c2cc1Cl)CCN1CCCC31` (centres unmarked) [compound 21, 2-(8-chloro-9-methyl-1,2,3,4,5,10c-hexahydro-3a, 6-diaza-cyclopenta[c]fluoren-6-yl)-1-pyridin-4-yl-ethanol], for which, in assay [1], the inhibition at 0.01 µM stood at 85%, the inhibition at 0.03 µM is 96% and the inhibition at 0.1 µM is 96%. Besides, in assay [2], the inhibition at 0.1 µM was found to be 78% and the inhibition at 0.3 µM was found to be 89%. Further, in assay [3], the inhibition at 0.1 µM is 84% and the inhibition at 0.3 µM is 95%.

`Cc1ccc2c(c1)c1c(n2CC(O)c2cc[n+]([O-])cc2)CCN2CCCC12` (centres unmarked) [compound 22, 4-(1-hydroxy-2-(10-methyl-2,3,5,6-tetrahydro-1H-indolizino[7,8-b]indol-7 (11cH)-yl)ethyl)pyridine 1-oxide]: in assay [1], the inhibition at 0.01 µM is 30%, the inhibition at 0.03 µM is 61% and the inhibition at 0.1 µM turned out to be 72%. Also, in assay [2], the inhibition at 0.1 µM is 7% and the inhibition at 0.3 µM stood at 15%. Further, in assay [3], the inhibition at 0.1 µM is 11% and the inhibition at 0.3 µM was determined as 30%.

In the case of `Cc1ccc2c(c1)c1c(n2CC(O)c2cccnc2)C(O)CN(C)C1` (centres unmarked) [compound 24, 5-(2-Hydroxy-2-pyridin-3-yl-ethyl)-2,8-dimethyl-2,3,4,5-tetrahydro-1H-pyrido[4,3-b]indol-4-ol], in assay [1], the inhibition at 0.01 µM was -25%, the inhibition at 0.03 µM was found to be 0% and the inhibition at 0.1 µM worked out at 29%. Moreover, in assay [2], the inhibition at 0.1 µM was -15% and the inhibition at 0.3 µM is 4%. Moreover, in assay [3], the inhibition at 0.1 µM is -3% and the inhibition at 0.3 µM came to 15%.

Consider `OCc1ccc2c(c1)c1c(n2CC(O)c2ccncc2)CCN2CCCC12` (centres unmarked) [compound 29], for which, in assay [1], the inhibition at 0.01 µM came out at 31%, the inhibition at 0.03 µM amounted to 66% and the inhibition at 0.1 µM was 80%. Besides, in assay [2], the inhibition at 0.1 µM was determined as 20% and the inhibition at 0.3 µM turned out to be 49%. In assay [3], the inhibition at 0.1 µM came to 15% and the inhibition at 0.3 µM was found to be 46%.

For the molecule `Cc1ccc2c(c1)c1c(n2CC(O)c2cccnc2)C(F)(F)CN(C)C1` (centres unmarked) [compound 30, 2-(4,4-difluoro-2,8-dimethyl-3,4-dihydro-1H-pyrido[4,3-b]indol-5(2H)-yl)-1-(pyridin-3-yl)ethanol], in assay [1], the inhibition at 0.01 µM came to 13%, the inhibition at 0.03 µM stood at 8% and the inhibition at 0.1 µM amounted to 12%. Moreover, in assay [2], the inhibition at 0.1 µM was -18% and the inhibition at 0.3 µM is -5%. For the same molecule, in assay [3], the inhibition at 0.1 µM came to 0% and the inhibition at 0.3 µM came to 17%.

Turning to `Cc1ccc2c(c1)c1c(n2CC(C)(O)c2cnc3ccccc3c2)CCN(C)C1` (centres unmarked) [compound 32], in assay [1], the “Percentage inhibition … (10 nM)” value stood at 14%; the “Percentage inhibition … (30 nM)” value came to 34%; the inhibition at 0.1 µM was 69%. For the same molecule, in assay [2], the “Percentage inhibition of ligand binding, Adrenergic α2A (0.1 μM)” value is listed as 5% and the “Percentage inhibition of ligand binding, Adrenergic α2A (0.3 μM)” value was 31%. Also, in assay [3], the inhibition at 0.1 µM was -1% and the inhibition at 0.3 µM was determined as 18%.

As to `Cc1ccc2c(c1)c1c(n2CC(C)(O)c2ccc(C(=O)N(C)CC3CC3)nc2)CCN(C)C1` (centres unmarked) [compound 33, N-(cyclopropylmethyl)-5-(1-(2,8-dimethyl-3,4-dihydro-1H-pyrido[4,3-b]indol-5(2H)-yl)-2-hydroxypropan-2-yl)-N-methylpicolinamide], in assay [1], the inhibition at 0.01 µM is 6%, the inhibition at 0.03 µM amounted to 8% and the inhibition at 0.1 µM was determined as 38%. Further, in assay [2], the inhibition at 0.1 µM is -10% and the inhibition at 0.3 µM stood at 4%. Also, in assay [3], the inhibition at 0.1 µM is -12% and the inhibition at 0.3 µM is -1%.

On to `Cc1ccc2c(c1)c1c(n2CC(C)(O)c2ccc(N(C)C)nc2)CCN(C)C1` (centres unmarked) [compound 39, 1-(2,8-dimethyl-3,4-dihydro-1H-pyrido[4,3-b]indol-5(2H)-yl)-2-(6-(dimethylamino)pyridin-3-yl)propan-2-ol], for which, in assay [1], the “Percentage inhibition … (10 nM)” value was found to be 11%; the inhibition at 0.03 µM was found to be 35%; the “Percentage inhibition of ligand binding, Adrenergic α2B (0.1 μM)” value turned out to be 64%. In addition, in assay [2], the “Percentage inhibition of ligand binding, Adrenergic α2A (0.1 μM)” value is 17% and the “Percentage inhibition of ligand binding, Adrenergic α2A (0.3 μM)” value is 19%. In assay [3], the inhibition at 0.1 µM came to 17% and the “Percentage inhibition of ligand binding, Adrenergic α1B (0.3 μM)” value is on record as 34%.
